In PMC4942819 (Scientific Reports, 2016):
Like-named read-outs stand apart in the source and are kept apart here.

Experiments:
[1] = test system: M. tuberculosis Erdman; assay: in vivo acute M.tb Erdman infection mouse model; design: species or system Mycobacterium tuberculosis; conditions: BALB/c mice
[2] = test system: MDR-TB clinical isolates; assay: microbe, parasite or virus in culture; assay type: cell-based; conditions: Mycobacterium tuberculosis
[3] = plasma protein binding; assay type: in vitro ADME; conditions: mouse, (M), read-out: Plasma protein binding (converted)
Method: (§1) The In vitro ADME/T assays were conducted at WuXi AppTec Co. Ltd.(Shanghai). ClogP was calculated with ChemDraw Ultra 14.0. In the study of bi-directional permeability across MDR1-MDCKII cell monolayer, permeability was correlated with the apparent permeability coefficient Papp (cm/s), which was interpreted as follows: Low permeability( Papp ≤ 1.0×10^-6 cm/s), Moderate permeability(1.0×10^-6 < Papp < 5.5×10^-6 cm/s) or High permeability( Papp ≥ 5.5×10^-6 cm/s). ^aaqueous solubility at room temperature.

[4] = test system: M. tuberculosis Erdman in J774A.1 cells; assay: macrophage assay, intracellular activity; assay type: cell-based, Mycobacterium tuberculosis; conditions: for Fold(log) reduction: decrease of log10 CFU between D7 and treatment group, J774A.1, 0.02 μM (Fig. 2 legend: 0.02 μg/mL)
Method: As described previously, J774A.1 cells were grown in 75-cm2 cell culture flasks in 10% FBS in Dulbecco’s modified Eagle’s medium (DMEM) until confluency. The cells were detached using a cell scraper, and then centrifuged at 200 g for 5 min at room temperature. The cells were incubated at 37 °C under 5% CO2 for 16 h after distributing into 24-well plates containing coverslips. M. tuberculosis Erdman (ATCC 35801) were diluted to a final concentration of 1 × 10^5 to 3 × 10^5 CFU/mL with DMEM after thawing and sonicating from frozen cultures. And 500 ul of the dilution was dispensed to each well of a new 24-well plate. Followed by, J774A.1 cells on coverslips were infected by incubation with M. tuberculosis Erdman at 37 °C for 2 h. Coverslips were then washed with HBSS and transferred to new 24-well plates. The Cultures were treated in triplicate with compounds at 0.02 μM containing DMEM and incubated at 37 °C under 5% CO2 for 16 h. At D 0 (for untreated controls) and after 7 days of incubation, macrophage cells were lysed by addition of 200 μL of 0.25% sodium dodecyl sulfate. The plates were incubated at 37 °C for 10 min, and 200 μL of DMEM was added. The lysate was sampled using a microtube and sonicated for 15 s. Then 1:1, 1:10, 1:100, and 1:1,000 dilutions were plated on 7H11 agar plates and CFU counts determined after 2 to 3 weeks of incubation at 37 °C.

[5] = biological target: CYP2D6 (Homo sapiens, UniProt P10635); assay: CYP inhibition; assay type: in vitro ADME
CYP2D6, sequence (P10635 whole entry): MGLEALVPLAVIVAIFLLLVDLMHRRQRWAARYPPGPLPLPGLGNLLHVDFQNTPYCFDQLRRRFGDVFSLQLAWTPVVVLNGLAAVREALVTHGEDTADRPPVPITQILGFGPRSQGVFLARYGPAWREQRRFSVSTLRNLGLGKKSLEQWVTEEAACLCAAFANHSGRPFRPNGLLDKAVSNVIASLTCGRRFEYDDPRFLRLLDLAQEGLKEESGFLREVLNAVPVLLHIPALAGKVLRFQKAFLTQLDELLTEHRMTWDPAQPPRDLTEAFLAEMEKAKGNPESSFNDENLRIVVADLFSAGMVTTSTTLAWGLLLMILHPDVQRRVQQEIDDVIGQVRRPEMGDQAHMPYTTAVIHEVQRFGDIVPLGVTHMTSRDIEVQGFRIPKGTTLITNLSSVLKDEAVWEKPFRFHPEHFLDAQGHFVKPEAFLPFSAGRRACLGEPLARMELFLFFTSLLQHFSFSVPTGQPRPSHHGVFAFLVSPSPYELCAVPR
Method: as §1

[6] = biological target: CYP2C19 (Homo sapiens, UniProt P33261); assay: CYP inhibition; assay type: in vitro ADME
CYP2C19, sequence (P33261 whole entry): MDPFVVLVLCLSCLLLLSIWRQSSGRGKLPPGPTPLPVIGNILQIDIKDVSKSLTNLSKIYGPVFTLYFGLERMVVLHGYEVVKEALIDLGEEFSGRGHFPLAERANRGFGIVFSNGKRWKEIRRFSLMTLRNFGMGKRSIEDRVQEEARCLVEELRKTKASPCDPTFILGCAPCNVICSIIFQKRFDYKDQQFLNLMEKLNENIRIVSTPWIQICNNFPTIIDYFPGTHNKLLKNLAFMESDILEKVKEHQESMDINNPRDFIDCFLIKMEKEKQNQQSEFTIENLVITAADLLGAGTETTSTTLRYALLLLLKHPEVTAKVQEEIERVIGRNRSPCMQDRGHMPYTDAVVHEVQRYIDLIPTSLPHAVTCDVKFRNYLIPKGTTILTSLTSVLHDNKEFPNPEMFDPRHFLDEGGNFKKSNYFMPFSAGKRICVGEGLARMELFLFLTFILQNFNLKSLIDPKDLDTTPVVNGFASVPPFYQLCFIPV
Method: as §1

SMILES: O=[N+]([O-])c1cc(C(F)(F)F)cc2c(=S)nc(N3CCC4(CC3)OCCO4)sc12 [SKLB-TB1001, 8-nitro-2-(1,4-dioxa-8-azaspiro[4.5]decan-8-yl)-6-(trifluoromethyl)-4H-benzo[e][1,3]thiazine-4-thione]
- reduction of M.tb CFU in lungs compared to the vehicle group ([1]; 150 mg/kg daily for 4 weeks): 3.4 logs
- reduction of M.tb CFU in lungs compared to treatment initiation ([1]; 150 mg/kg daily for 4 weeks): 0.87 logs
- Log10 CFU (SD), bacterial burden in mouse lungs ([1]; Day-36, 150 mg/kg oral daily from day 10): 2.84 (2.93)
- MIC ([2]; read-out: MIC, MDR-TB strain M3): < 0.0156 µg/mL
- MIC ([2]; read-out: MIC, MDR-TB strain M4): < 0.0156 µg/mL
- MIC ([2]; read-out: MIC, MDR-TB strain M8): < 0.0156 µg/mL
- MIC ([2]; read-out: MIC, MDR-TB strain M18): < 0.0156 µg/mL
- fraction unbound [3]: 0.038
- Log10 CFU, intracellular Mtb Erdman ([4]; J774A.1 macrophages, 0.02 μM (Fig. 2 legend: 0.02 μg/mL), 7 days): 4.77
- Fold(log) reduction [4]: 2.08 log
- Fold(log) reduction ([4]; listed as SKLB-1001): 2.1 log
- IC50 [5]: > 10 µM
- IC50 [6]: > 10 µM
